Values quoted from earlier work in patent US7704745B2 (priority 2001, dated 2010).

System: human hepatocyte and neuroblastoma cells
Details: cited from earlier work

Compound | effect on hepatocyte and neuroblastoma cell metabolism
CCOP(=O)(OCC)Oc1ccc([N+](=O)[O-])cc1 [paraoxon] | opposite effects
CCOP(=S)(OCC)Oc1ccc([N+](=O)[O-])cc1 [parathion] | opposite effects
